Experiments:
Min6 insulinoma cell = test: Min6 cell line cytoprotection from ER stress (tunicamycin); assay type: cell-based; conditions: 6 hour exposure to tunicamycin 2.5 μg/mL, different concentrations, viability 72h
Procedure: (§1) Cells were plated in 96 well plates at a density of 0.5.10^6 cells/mL for Min6 cell line, 0,4.10^6 cells/mL for INS1 cell line the day before the treatment. ER stress was elicited by addition of 2.5 μg/mL tunicamycin (Sigma Aldrich) together with phosphatases inhibitors. Media were changed 6h later with fresh media and the cytoprotection was maintained by the addition of phosphatases inhibitors. Cell viability was assessed by measuring the reduction of WST-8 into formazan using Cell Counting Kit-8 (Sigma) according to the supplier's recommendation, 72h after tunicamycin treatment.

human alpha2A receptor = molecular target: T1, human alpha2A receptor (Homo sapiens, UniProt P08913); test: Functional GPCR assay for adrenergic α2A receptor (CellKey detection method); assay type: cell-based; conditions: agonist activity, CHO cells expressing human alpha2A receptor, impedance (CellKey); read-out: Functional adrenergic alpha2 receptor assay EC50
T1 construct: CHO cells endogenously expressing human alpha2A receptor; endogenous in cells; host or cells: CHO cells
T1 sequence (P08913 1-465): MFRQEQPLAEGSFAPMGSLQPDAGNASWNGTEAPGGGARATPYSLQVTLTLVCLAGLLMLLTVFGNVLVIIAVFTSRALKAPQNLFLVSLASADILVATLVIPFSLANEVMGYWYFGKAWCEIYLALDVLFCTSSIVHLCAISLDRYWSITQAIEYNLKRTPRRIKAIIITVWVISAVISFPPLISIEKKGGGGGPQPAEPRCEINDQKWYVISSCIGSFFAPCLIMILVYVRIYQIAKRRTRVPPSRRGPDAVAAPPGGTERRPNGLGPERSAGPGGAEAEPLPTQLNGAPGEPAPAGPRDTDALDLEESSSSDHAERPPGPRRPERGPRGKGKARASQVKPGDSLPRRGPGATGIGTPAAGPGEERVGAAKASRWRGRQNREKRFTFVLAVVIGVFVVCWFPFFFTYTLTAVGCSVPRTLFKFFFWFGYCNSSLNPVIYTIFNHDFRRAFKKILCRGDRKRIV
Procedure: The agonist activity of compounds was evaluated on CHO cells […] expressing human alpha2A receptor and was determined by measuring their effects on impedance modulation using the CellKey detection method. Cells were seeded onto 96-well plate at density of 6×10^4 cells/well in HBSS buffer (Invitrogen)+20 mM HEPES (Invitrogen) with 0.1% BSA and are allowed to equilibrate for 60 min at 28° C. before the start of the experiment. Plates were placed onto the system and measurements were made at a temperature of 28° C. Solutions were added simultaneously to all 96 wells using an integrated fluidics system: HBSS (basal control), reference agonist at 100 nM (stimulated control), reference agonist (EC50 determination) or the test compounds. Impedance measurements are monitored for 10 minutes after ligand addition. The standard reference agonist is epinephrine, which is tested in each experiment at several concentrations to generate a concentration-response curve from which its EC50 value is calculated.
Dose-response data from test compounds were analysed with Hill software using non-linear regression analysis of the concentration-response curves generated with mean replicate values using Hill equation curve fitting.

[1] = tested on: mouse embryonic fibroblasts lipofected with poly I:C; test: In vitro inflammation/infection model: poly I:C induced mouse embryonic fibroblasts; assay type: cell-based; conditions: 25 μM, 6h, IFN-beta ELISA in culture supernatants
Procedure: Mouse Embryonic Fibroblasts (MEFs) were lipofected with poly I:C and treated with […] compounds of the invention (25 μM) for 6h. After 6h of culture, elF2alpha-phosphorylation (elF2a-P) and PPP1R15A (GADD34) expression was monitored by western blotting, while type-1 Interferon(IFN)-beta production was quantified in culture supernatants by ELISA. Control (nt) and poly I:C/DMSO are respectively negative and positive controls. Poly I:C (polyinosinic:polycytidylic acid or polyinosinic-polycytidylic acid sodium salt) is an immunostimulant used to simulate viral infections. Poly I:C which is structurally similar to double-stranded RNA, is known to interact with toll-like receptor 3 which is expressed in the intracellular compartments of B-cells and dendritic cells. Guanabenz (25 μM) was used as reference inhibitory compound.
MEFs were cultured in DMEM, 10% FCS (HyClone, Perbio), 100 units/ml penicillin, 100 μg/ml streptomycin, 2 mM glutamine, 1× MEM non-essential amino acids and 50 μM 2-mercaptoethanol. MEFS were treated for the indicated time with 10 μg/ml poly I:C (InvivoGen) in combination with lipofectamine 2000 (Invitrogen).
Cells were lysed in 1% Triton X-100, 50 mM Hepes, 10 mM NaCl, 2.5 mM MgCl2, 2 mM EDTA, 10% glycerol, supplemented with Complete Mini Protease Inhibitor Cocktail Tablets (Roche). Protein quantification was performed using the BCA Protein Assay (Pierce). 25-50 μg of Triton X-100-soluble material was loaded on 2%-12% gradient or 8% SDS-PAGE before immunoblotting and chemi-luminescence detection (SuperSignal West Pico Chemi-luminescent Substrate, Pierce). Rabbit polyclonal antibodies recognizing GADD34 (C-19) were from Santa Cruz Biotechnology and anti-elF2alpha[pS^52] were from Invitrogen.
IFN-beta quantification in culture supernatant was performed using the Mouse Interferon Beta ELISA kit (PBL Interferon Source) according to manufacturer instructions.
Normal response of MEFs to poly I:C is characterized by PPP1R15A expression, increase in elF2alpha-P (variable in time and related to the levels PPP1R15A expression) mediated by PKR activation and type-I IFN production (range 500 to 700 pg/ml). Knock out PPP1R15A MEFs are unable to produce this cytokine in response to poly I:C.
The potency of compounds of the invention to inhibit PPP1R15A was evaluated by measuring the increase of elF2alpha phosphorylation, the decrease of PPP1R15A expression due to its own pharmacological inhibition resulting in general protein synthesis inhibition and type-I IFN production.

HeLa cells [2] = test: Cytoprotection from ER stress (tunicamycin), cell viability by WST-8; assay type: cell-based; parameters: key to Cytoprotection from ER stress compared to guanabenz: +: lower cytoprotective effect compared to Guanabenz; ++: similar cytoprotective effect compared to Guanabenz; +++: higher cytoprotective effect compared to Guanabenz; conditions: HeLa cells, 6 hour exposure to tunicamycin 5 μg/mL, compounds 0.5-10 μM, viability 48 h or 72 h
Excerpt: Cytoprotection against ER stress can be measured by a suitable assay. For example, cytoprotection can be measured in HeLa cells in which ER stress is elicited by the addition of media containing tunicamycin, a mixture of homologous nucleoside antibiotics that inhibits the UDP-HexNAc: polyprenol-P HexNAc-1-P family of enzymes and is used to induce unfolded protein response. Cell viability can be detected in the presence and absence of inhibitor compounds after a set period of time, by measuring the reduction of WST-8 into formazan using a standard cell viability kit (such as Cell Viability Counting Kit-8 from Dojindo). Cytoprotection from ER stress is measured in terms of the percentage increase in viable cells (relative to control) after ER stress. Further details of a suitable assay are set forth in the accompanying Examples section.
This assay is described in Tsaytler et al. (Science 2011). HeLa Cells were cultured in Eagle's Minimum Essential Medium (EMEM) supplemented with Glutamine, Sodium Pyruvate, Non-Essential Amino Acids, Penicillin and Streptomycin containing 10% Foetal Bovine Serum (FBS), at 37° C. in 5% CO2 atmosphere. Cells were plated in 96 well plates at a density of 17,000 cells/mL the day before the treatment. ER stress was elicited by addition of 5 μg/mL tunicamycin (Sigma-Aldrich) together with PPP1R15A inhibitors (0.5-10 μM). Media were changed 6h later with fresh media and the cytoprotection was maintained by the addition of PPP1R15A inhibitors (0.5-10 μM). Cell viability was assessed by measuring the reduction of WST-8 into formazan using Cell Counting Kit-8 (Sigma) according to the supplier's recommendation, 48 h or 72h after tunicamycin treatment. Cytoprotection from ER stress is measured in terms of cytoprotective potency effect compared to the reference compound Guanabenz (Tsaytler et al., Science 2011) after ER stress: • ‘+’ no cytoprotective effect; • ‘+’ lower cytoprotective effect compared to Guanabenz; • ‘++’ similar cytoprotective effect compared to Guanabenz; • ‘+++’ higher cytoprotective effect compared to Guanabenz.
Table 1 summarizes the results of cytoprotective effect of different compounds of the invention, compared to guanabenz, after the stress induced by a 6 hour exposure of tunicamycin.

Min6 cells = test: Protection against accumulation of misfold prone Insulin Akita; assay type: cell-based; conditions: Min6 cells nucleofected with Insulin Akita, viability 9 days after treatment
Procedure: Min6 cells were nucleofected with Insulin^Akita mutant constructs and seeded in 96 well-plates at 300,000 cells/mL and 24h later, cells were treated with molecules or left untreated. As a control, cells were nucleofected with non-relevant plasmid. 6 days later, a selective agent was added (G418). Cell viability was assessed by measuring the reduction of WST-8 into formazan using Cell Counting Kit-8 (Sigma) according to the supplier's recommendation, 9 days after treatment.

INS1 insulinoma cell = test: INS1 cell line cytoprotection from ER stress (tunicamycin); assay type: cell-based; conditions: 6 hour exposure to tunicamycin 2.5 μg/mL, different concentrations, viability 72h
Procedure: as §1

HeLa cells [3] = conditions: tunicamycin; Tsaytler et al., Science 2011; cited from earlier work

EC50 (human alpha2A receptor) | Structure (SMILES) | prevention of Min6 insulinoma cell death (FIG. 7) (Min6 insulinoma cell) | prevention of type-I IFN production (FIG. 9) [1] | Cytoprotection from ER stress compared to guanabenz (HeLa cells [2]) | prevention of cell death associated with accumulation of misfold prone Insulin Akita (FIG. 6) (Min6 cells) | prevention of INS1 insulinoma cell death (FIG. 8) (INS1 insulinoma cell) | protection of cells from cytotoxic ER stress (HeLa cells [3])
> 33.3 µM | CCONC(=N)N/N=C/c1ccncc1Cl [Compound 16, 2-[(3-chloropyridin-4-yl)methylidene]-N-ethoxyhydrazinecarboximidamide] | prevent Min6 insulinoma cell death | prevent type-I IFN production | + | prevent cell death | prevent INS1 insulinoma cell death | –
– | Clc1cccc(Cl)c1N=C1NCCN1 [clonidine] | – | – | – | – | – | Neither the α2-adrenergic receptor agonist clonidine, nor the α2-adrenergic receptor antagonist efaroxan protected cells
– | CCC1(C2=NCCN2)Cc2ccccc2O1 (centres unmarked) [efaroxan] | – | – | – | – | – | Neither the α2-adrenergic receptor agonist clonidine, nor the α2-adrenergic receptor antagonist efaroxan protected cells

Source: patent US11084783B2, “O-alkyl-benzylideneguanidine derivatives and therapeutic use for the treatment of disorders associated with an accumulation of misfolded proteins” (INFLECTIS BIOSCIENCE, priority 2014, dated 2021)
